Experimental data taken from the supplement of paper PMC11208160.

Assay: recombinant UMI read abundance after kanamycin selection (control-corrected) (log10(CPM+1)); higher = more efficient recombination; extreme values may be limits of the assay; sequences stand for … in AGTGCAGAGAAAATCGGCCAGTTTTCTCTGCCTGCAGTCCGCATGCCGTGGGACCCCTTGGGTTCTAACCTGTTGCCTAGATTTATGCAGCGGACTGCCTTTCTCCCAAAGTGATAAACCGG…AGGTTGGTTTCACT; site = the 11-nt donor
How it was run: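 Values, expressed as log10(CPM+1), derive from recombinant UMI counts converted to CPM, averaged across replicates and scaled by control-derived factors. Plating was with IPTG (0.07 mM) plus kanamycin or unselected, two replicates each. The screen pooled donor and donor-binding-loop pairs for the IS621 bridge recombinase in Escherichia coli.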
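Note: IS621 bridge recombinase in Escherichia coli cells against a fixed T5 target plasmid.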

Point of comparison: “CGGACCCCATGGACCGGTTTTCCCGGTAATCCGTATTTGTT (site CGGAATCCTAA)”, “recombinant UMI read abundance (log10)” value 0.00407. Against it:
- CGCGGACCATGGACCGGTTTTCCCGGTAATCCGTATTTGGG (site CGTGGACCTCC) — within 0.2 log units, 0.0246
- CGCGGCACATGGACCGGTTTTCCCGGTAATCCGTATTTGTA (site CGCGGCACTTA) — higher, 1.66
- CGCGTCTCATGGACCGGTTTTCCCGGTAATCCGTATTTGTA (site CGCGTCTCTTA) — higher, 3.26
- CGCTAATCATGGACCGGTTTTCCCGGTAATCCGTATTTGGG (site CGCTAATCTCC) — higher, 1.5
- CGCTACTCATGGACCGGTTTTCCCGGTAATCCGTATTTGCT (site CGCTACTCTAG) — higher, 2.85
- CGCTAGCCATGGACCGGTTTTCCCGGTAATCCGTATTTGCC (site CACTAGCCTGG) — within 0.2 log units, 0.0111
- CGCTAGCCATGGACCGGTTTTCCCGGTAATCCGTATTTGCC (site CCCTAGCCTGG) — within 0.2 log units, 0
- CGCTAGCCATGGACCGGTTTTCCCGGTAATCCGTATTTGCC (site CGCTAGCCTGG) — higher, 0.816
- CGCTAGCCATGGACCGGTTTTCCCGGTAATCCGTATTTGCC (site CTCTAGCCTGG) — higher, 1.8
- CGCTCAACATGGACCGGTTTTCCCGGTAATCCGTATTTGCT (site CGATCATCTAG) — within 0.2 log units, 0
- CGCTCAACATGGACCGGTTTTCCCGGTAATCCGTATTTGCT (site CGCTCAACTAG) — within 0.2 log units, 0
- CGCTCAGCATGGACCGGTTTTCCCGGTAATCCGTATTTGGG (site AGCTCAGCTCC) — within 0.2 log units, 0
- CGCTCAGCATGGACCGGTTTTCCCGGTAATCCGTATTTGGG (site CGCTCAGCTCC) — within 0.2 log units, 0.0677
- CGCTCAGCATGGACCGGTTTTCCCGGTAATCCGTATTTGGG (site GGCTCAGCTCC) — within 0.2 log units, 0
- CGCTCAGCATGGACCGGTTTTCCCGGTAATCCGTATTTGGG (site TGCTCAGCTCC) — within 0.2 log units, 0.00882
- CGCTCCGCATGGACCGGTTTTCCCGGTAATCCGTATTTGCA (site CGCTCCGCTTG) — higher, 1.79
- CGCTCCTCATGGACCGGTTTTCCCGGTAATCCGTATTTGCA (site CGCTCCTCTTG) — higher, 2.84
- CGCTGAGCATGGACCGGTTTTCCCGGTAATCCGTATTTGGT (site CGCTGAGCTAC) — higher, 1.31
- CGCTGATCATGGACCGGTTTTCCCGGTAATCCGTATTTGCC (site CGCTGATCTGG) — higher, 1.88
- CGCTGGACATGGACCGGTTTTCCCGGTAATCCGTATTTGAA (site CGCTGGACTTT) — higher, 1.77
- CGCTGTACATGGACCGGTTTTCCCGGTAATCCGTATTTGCT (site CGCAGTACTAG) — within 0.2 log units, 0
- CGCTGTACATGGACCGGTTTTCCCGGTAATCCGTATTTGCT (site CGCCGTACTAG) — higher, 1.54
- CGCTGTACATGGACCGGTTTTCCCGGTAATCCGTATTTGCT (site CGCGGTACTAG) — within 0.2 log units, 0
- CGCTGTACATGGACCGGTTTTCCCGGTAATCCGTATTTGCT (site CGCTGTACTAG) — higher, 1.68
- CGCTTCTCATGGACCGGTTTTCCCGGTAATCCGTATTTGGG (site CACTTCTCTCC) — within 0.2 log units, 0.0042
- CGCTTCTCATGGACCGGTTTTCCCGGTAATCCGTATTTGGG (site CCCTTCTCTCC) — within 0.2 log units, 0.0589
- CGCTTCTCATGGACCGGTTTTCCCGGTAATCCGTATTTGGG (site CGCTTCTCTCC) — within 0.2 log units, 0.00699
- CGCTTCTCATGGACCGGTTTTCCCGGTAATCCGTATTTGGG (site CTCTTCTCTCC) — within 0.2 log units, 0.0109
- CGCTTGGCATGGACCGGTTTTCCCGGTAATCCGTATTTGGA (site CACTTGGCTTC) — higher, 0.361
- CGCTTGGCATGGACCGGTTTTCCCGGTAATCCGTATTTGGA (site CCCTTGGCTTC) — within 0.2 log units, 0
- CGCTTGGCATGGACCGGTTTTCCCGGTAATCCGTATTTGGA (site CGCTTGGCTTC) — higher, 0.824
- CGCTTGGCATGGACCGGTTTTCCCGGTAATCCGTATTTGGA (site CTCTTGGCTTC) — within 0.2 log units, 0.00767
- CGGAAACCATGGACCGGTTTTCCCGGTAATCCGTATTTGCT (site CGGAAACCTAG) — within 0.2 log units, 0
- CGGAAACCATGGACCGGTTTTCCCGGTAATCCGTATTTGCT (site CGGAATCCTAA) — within 0.2 log units, 0
- CGGAACCCATGGACCGGTTTTCCCGGTAATCCGTATTTGGT (site CGGAACCCTAC) — higher, 1.06
- CGGAACCCATGGACCGGTTTTCCCGGTAATCCGTATTTGGT (site CGGAATCCTAA) — within 0.2 log units, 0
- CGGAACCCATGGACCGGTTTTCCCGGTAATCCGTATTTGTG (site CGGAACCCTCA) — higher, 1.13
- CGGAACCCATGGACCGGTTTTCCCGGTAATCCGTATTTGTG (site CGGAATCCTAA) — within 0.2 log units, 0
- CGGAAGACATGGACCGGTTTTCCCGGTAATCCGTATTTGTG (site CGGAAGACTCA) — higher, 2.67
- CGGAATCCATGGACCGGTTTTCCCGGTAATCCGTATTTGAC (site CGGAATCCTAA) — within 0.2 log units, 0.003
- CGGAATCCATGGACCGGTTTTCCCGGTAATCCGTATTTGAC (site CGGAATCCTGT) — higher, 1.1
- CGGAATCCATGGACCGGTTTTCCCGGTAATCCGTATTTGAT (site CGGAATCCTAA) — within 0.2 log units, 0
- CGGAATCCATGGACCGGTTTTCCCGGTAATCCGTATTTGAT (site CGGAATCCTAC) — within 0.2 log units, 0.0207
- CGGAATCCATGGACCGGTTTTCCCGGTAATCCGTATTTGAT (site CGGAATCCTAG) — within 0.2 log units, 0
- CGGAATCCATGGACCGGTTTTCCCGGTAATCCGTATTTGAT (site CGGAATCCTAT) — higher, 0.646
- CGGAATCCATGGACCGGTTTTCCCGGTAATCCGTATTTGGT (site CGGAATCCTAA) — within 0.2 log units, 0
- CGGAATCCATGGACCGGTTTTCCCGGTAATCCGTATTTGGT (site CGGAATCCTAC) — higher, 0.913
- CGGAATCCATGGACCGGTTTTCCCGGTAATCCGTATTTGGT (site CGGAATCCTAG) — within 0.2 log units, 0
- CGGAATCCATGGACCGGTTTTCCCGGTAATCCGTATTTGGT (site CGGAATCCTAT) — within 0.2 log units, 0
- CGGAATCCATGGACCGGTTTTCCCGGTAATCCGTATTTGTA (site CGGAATCCTAA) — within 0.2 log units, 0
- CGGAATCCATGGACCGGTTTTCCCGGTAATCCGTATTTGTA (site CGGAATCCTCA) — higher, 0.781
- CGGAATCCATGGACCGGTTTTCCCGGTAATCCGTATTTGTA (site CGGAATCCTGA) — within 0.2 log units, 0
- CGGAATCCATGGACCGGTTTTCCCGGTAATCCGTATTTGTA (site CGGAATCCTTA) — higher, 1.29
- CGGAATGCATGGACCGGTTTTCCCGGTAATCCGTATTTGGT (site CGGAATCCTAA) — within 0.2 log units, 0
- CGGAATGCATGGACCGGTTTTCCCGGTAATCCGTATTTGGT (site CGGAATGCTAC) — higher, 2.27
- CGGAATTCATGGACCGGTTTTCCCGGTAATCCGTATTTGTT (site CGGAATACTAA) — within 0.2 log units, 0.00592
- CGGAATTCATGGACCGGTTTTCCCGGTAATCCGTATTTGTT (site CGGAATCCTAA) — within 0.2 log units, 0.0141
- CGGAATTCATGGACCGGTTTTCCCGGTAATCCGTATTTGTT (site CGGAATGCTAA) — within 0.2 log units, 0.00572
- CGGAATTCATGGACCGGTTTTCCCGGTAATCCGTATTTGTT (site CGGAATTCTAA) — higher, 2.72
- CGGACATCATGGACCGGTTTTCCCGGTAATCCGTATTTGCG (site CGGACATCTAG) — within 0.2 log units, 0
- CGGACATCATGGACCGGTTTTCCCGGTAATCCGTATTTGCG (site CGGACATCTCG) — higher, 2.25
- CGGACATCATGGACCGGTTTTCCCGGTAATCCGTATTTGCG (site CGGACATCTGG) — within 0.2 log units, 0
- CGGACATCATGGACCGGTTTTCCCGGTAATCCGTATTTGCG (site CGGACATCTTG) — within 0.2 log units, 0.00626
- CGGACCCCATGGACCGGTTTTCCCGGTAATCCGTATTTGTT (site CGGACCCCTAA) — higher, 1.02
- CGGACTACATGGACCGGTTTTCCCGGTAATCCGTATTTGCG (site CGGACTACTCG) — higher, 1.64
- CGGACTTCATGGACCGGTTTTCCCGGTAATCCGTATTTGCC (site CGGACTTCTGG) — higher, 1.27
- CGGATGACATGGACCGGTTTTCCCGGTAATCCGTATTTGCA (site CGGATGACTTG) — higher, 2.89
